The assay deals with T1, Carboxylic ester hydrolase (Homo sapiens, UniProt Q8TDZ9).
T1 sequence (Q8TDZ9 whole entry): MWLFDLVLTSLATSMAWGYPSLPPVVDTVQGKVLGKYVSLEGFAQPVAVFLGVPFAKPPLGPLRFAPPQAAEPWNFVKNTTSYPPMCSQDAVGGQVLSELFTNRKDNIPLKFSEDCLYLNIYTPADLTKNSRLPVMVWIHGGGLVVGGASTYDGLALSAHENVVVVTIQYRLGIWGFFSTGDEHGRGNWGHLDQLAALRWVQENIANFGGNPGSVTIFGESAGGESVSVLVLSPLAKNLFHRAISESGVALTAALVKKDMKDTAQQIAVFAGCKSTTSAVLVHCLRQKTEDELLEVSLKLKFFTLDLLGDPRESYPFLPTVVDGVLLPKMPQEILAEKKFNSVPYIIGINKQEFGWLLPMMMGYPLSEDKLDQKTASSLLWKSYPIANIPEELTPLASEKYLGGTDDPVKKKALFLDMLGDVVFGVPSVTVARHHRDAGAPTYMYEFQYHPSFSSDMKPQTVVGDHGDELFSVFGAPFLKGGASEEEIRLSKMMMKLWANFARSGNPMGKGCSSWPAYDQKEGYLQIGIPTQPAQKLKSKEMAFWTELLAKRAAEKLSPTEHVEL
The assay can be described thus: TGH Inhibition Assay. How it is done:
Inhibition of TGH activity was assayed using COS-7 expressed TGH and the chromogenic substrate. IC50 values were determined from the inhibition observed at 7 different inhibitor concentrations (three trials each).

With `O=C(CCCCCCc1cccc(Cl)c1Cl)c1ncc(-c2ccccn2)o1` [7-(2,3-dichlorophenyl)-1-[5-(pyridin-2-yl)-1,3-oxazol-2-yl]heptan-1-one], the IC50 turned out to be 0.5 µM.
`O=C(CCc1ccc(OCc2ccccc2)cc1)c1ncc(-c2ccccn2)o1` [3-[4-(benzyloxy)phenyl]-1-[5-(pyridin-2-yl)-1,3-oxazol-2-yl]propan-1-one] came in with an IC50 of 8 µM.
The same measure for `O=C(CCc1ccc(COc2ccccc2)cc1)c1ncc(-c2ccccn2)o1`: 2 µM.

The values above are taken from BindingDB's records for doi:10.1021/jm061414r (The Scripps Research Institute, 2007).
